Data published in US6204384A, “Substituted 3-amino-2-hydroxyphenylacetamide derivatives as enzyme inhibitors (II)” (Corvas International, Inc., priority 1997, dated 2001).

Experiments:
[1] = literature; cited from earlier work
[2] = literature; cited from earlier work; remark: listed apart in the source
[3] = system: trypsin, plasmin and kallikrein; settings: literature, inhibiting trypsin; cited from earlier work
[4] = system: thrombotic occlusion of the carotid artery; experiment: Rat model of FeCl3-induced platelet-dependent arterial thrombosis; assay type: in vivo; settings: dose that prevents complete thrombotic occlusion in 50% of animals tested, read-out: ED50 for thrombus prevention in the FeCl3 model of arterial thrombosis
Procedure: The antithrombotic (prevention of thrombus formation) properties of compounds of the present invention are evaluated using the following established experimental model of acute vascular thrombosis which is a rat model of FeCl3 -induced platelet-dependent arterial thrombosis.
This is a well characterized model of platelet dependent, arterial thrombosis which has been used in the evaluation potential antithrombotic compounds such as direct thrombin inhibitors. See, Kurz, K. D., Main, B. W., and Sandusky, G. E., Thromb. Res., 60: 269-280 (1990). In this model a platelet-rich, occlusive thrombus is formed in a segment of the rat carotid artery treated locally with a fresh solution of FeCl3 absorbed to a piece of filter paper. […] The effect of a test compound on the incidence of occlusive thrombus formation following the application of the […] is monitored by ultrasonic flowtometry and is used as the primary end point. […]
Following surgery the animals are randomized in either a control (saline) or treatment group with test compound, with at least 6 animals per group per dose. […] Blood pressure, blood flow, heart rate, and respiration are monitored for 60 minutes.
The incidence of occlusion (defined as the attainment of zero blood flow) is recorded as the primary end point. […]

## N=C(N)c1ccc(CC(=O)C(=O)O)cc1 [APPA, 4-amidinophenylpyruvic acid]
[1]
  toxicity, in words: low toxicity
[2]
  pharmacokinetics, in words: favourable pharmacokinetics
[3]
  selectivity, in words: non-selective, inhibiting trypsin, plasmin and kallikrein

## CC1CNc2c(cccc2S(=O)(=O)N[C@@H](CCCNC(=N)N)C(=O)N2CC[C@@H](C)C[C@@H]2C(=O)O)C1 (stereo partly drawn) [Argatroban, 2R,4R-4-methyl-1-[N-2-(3-methyl-1,2,3,4-tetrahydro-8-quinolinesulfonyl)-L-argininy]-2-piperdinecarboxylic acid]
[4]
  ED50: 3.8 mg/kg
